Target: Excitatory amino acid transporter 1 (Homo sapiens, UniProt P43003)
Experiment: Inhibition of human EAAT1 expressed in HEK293 cells by [3H]D-Asp uptake assay

Chain of Excitatory amino acid transporter 1 (P43003 whole entry): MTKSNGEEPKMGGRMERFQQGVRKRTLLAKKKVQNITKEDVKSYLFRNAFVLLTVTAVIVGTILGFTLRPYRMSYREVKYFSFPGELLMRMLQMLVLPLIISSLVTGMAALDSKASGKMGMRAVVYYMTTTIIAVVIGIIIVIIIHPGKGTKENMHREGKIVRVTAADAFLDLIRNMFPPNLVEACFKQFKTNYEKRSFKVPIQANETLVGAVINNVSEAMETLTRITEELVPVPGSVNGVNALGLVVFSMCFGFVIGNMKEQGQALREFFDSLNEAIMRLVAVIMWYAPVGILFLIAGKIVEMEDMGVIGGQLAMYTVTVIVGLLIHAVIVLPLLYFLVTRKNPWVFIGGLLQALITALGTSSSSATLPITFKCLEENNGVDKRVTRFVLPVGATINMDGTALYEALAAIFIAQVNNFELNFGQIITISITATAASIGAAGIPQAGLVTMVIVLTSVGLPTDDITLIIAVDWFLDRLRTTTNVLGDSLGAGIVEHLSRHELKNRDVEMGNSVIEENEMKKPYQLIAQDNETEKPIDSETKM

SMILES	IC50
N=C1OC2=C(C(=O)CC(c3ccccc3)C2)C(c2ccccc2)C1C(N)=O (stereo not drawn) [2-Amino-5-oxo-4,7-diphenyl-5,6,7,8-tetrahydro-4H-chromene-3-carboxamide]	> 100 µM
COC(=O)C1C(=N)OC2=C(C(=O)CC(c3ccccc3)C2)C1c1ccccc1 (stereo not drawn) [Methyl2-Amino-5-oxo-4,7-diphenyl-5,6,7,8-tetrahydro-4Hchromene-3-carboxylate]	> 300 µM
CC1CC(=O)C2=C(C1)OC(=N)C(C#N)C2c1ccc2c(c1)OCO2 (stereo not drawn) [2-amino-4-(benzo[d][1,3]dioxol-5-yl)-7-methyl-5-oxo-5,6,7,8-tetrahydro-4H-chromene-3-carbonitrile]	> 316 µM
N#CC1C(=N)OC2=C(C(=O)O[C@@H](c3ccccc3)C2)[C@@H]1c1ccccc1 (relative stereo) [syn-2-Amino-5-oxo-4,7-diphenyl-4,5,7,8-tetrahydropyrano[4,3-b]-pyran-3-carbonitrile]	> 300 µM

Results, then the compound that gave them:

IC50	SMILES
> 316 µM	N#CC1C(=N)OC2=C(C(=O)N[C@H](c3ccccc3)C2)[C@@H]1c1ccccc1 (relative stereo) [anti-2-Amino-5-oxo-4,7-diphenyl-5,6,7,8-tetrahydro-4H-pyrano-[3,2-c]pyridine-3-carbonitrile]
> 300 µM	N#CC1C(=N)OC2=C(C(=O)N[C@@H](c3ccccc3)C2)[C@@H]1c1ccccc1 (relative stereo) [syn-2-amino-5-oxo-4,7-diphenyl-5,6,7,8-tetrahydro-4H-pyrano[3,2-c]pyridine-3-carbonitrile]
> 300 µM	N#CC1C(=N)OC2=C(C(=O)O[C@H](c3ccccc3)C2)[C@@H]1c1ccccc1 (relative stereo) [anti-2-Amino-5-oxo-4,7-diphenyl-4,5,7,8-tetrahydropyrano[4,3-b]-pyran-3-carbonitril]
> 100 µM	N=C1CC(c2ccccc2)C2=C(CC(c3ccccc3)CC2=O)O1 (stereo not drawn) [2-Amino-4,7-diphenyl-7,8-dihydro-4H-chromen-5(6H)-one]

Reference: BindingDB's records for doi:10.1021/jm1009154 (University of Copenhagen, 2010)
